Literature values as cited in patent US10332616B2, “Movable type method applied to protein-ligand binding” (University of Florida Research Foundation, Inc., priority 2013, dated 2019).
Where two headings read alike, the source gives them in different places.

[1] = experimental solvation free energy, test set with 372 neutral compounds
[2] = experimental solvation free energy, neutral compounds test set
[3] = aqueous solvation free energy, charged compounds (ions)

## BrC(Br)Br [Compound 0179tri]
[1]
  Exp. ΔGsolv: -1.98 kcal/mol

## O=Cc1cccc(O)c1 [Compound 0150mhy]
[2]
  Exp. ΔGsolv: -9.51 kcal/mol

## CCOCC [Compound 0063die]
[2]
  Exp. ΔGsolv: -1.76 kcal/mol

## Clc1ccccc1Cl [Compound 0175odi]
[1]
  Exp. ΔGsolv: -1.36 kcal/mol

## NC(=S)c1c(Cl)cccc1Cl [Compound 0427dcl]
[1]
  Exp. ΔGsolv: -10.81 kcal/mol

## CCOP(=S)(OCC)SC(CCl)N1C(=O)c2ccccc2C1=O (stereo not drawn) [test1023]
[2]
  Exp. ΔGsolv: -5.7 kcal/mol

## C1COCCN1 [Compound 0149mor]
[2]
  Exp. ΔGsolv: -7.17 kcal/mol

## CC(=O)C(=O)O [i063, pyruvicacid, reference compound]
[3]
  Exp. ΔGsolv: -68.50 kcal/mol

## CCOP(=O)(OCC)OCC [Compound 0221tri]
[2]
  Exp. ΔGsolv: -7.8 kcal/mol

## CCOc1ccccc1 [Compound 0246eth]
[2]
  Exp. ΔGsolv: -2.22 kcal/mol

## Cc1ccccc1N [n009]
[2]
  Exp. ΔGsolv: -5.56 kcal/mol

## CCCCN(CC)c1c([N+](=O)[O-])cc(C(F)(F)F)cc1[N+](=O)[O-] [test1011]
[2]
  Exp. ΔGsolv: -3.5 kcal/mol

## CCNc1nc(NC(C)(C)C)nc(SC)n1 [test1053]
[1]
  Exp. ΔGsolv: -6.7 kcal/mol

## CC(C)Cc1ccc(C(C)C(=O)O)cc1 (stereo not drawn) [test2017]
[2]
  Exp. ΔGsolv: -7 kcal/mol

## c1ccc2cc3ccccc3cc2c1 [Compound 0042ant]
[1]
  Exp. ΔGsolv: -4.23 kcal/mol

## N [i047, ammonia, reference compound]
[3]
  Exp. ΔGsolv: -85.20 kcal/mol

## c1ccccc1 [Compound 0035ben]
[1]
  Exp. ΔGsolv: -0.87 kcal/mol

## COC(=O)c1ccccc1S(=O)(=O)NC(=O)Nc1nc(C)cc(C)n1 [test1051]
[2]
  Exp. ΔGsolv: -20.3 kcal/mol

## O=S1OC[C@@H]2[C@H](CO1)[C@@]1(Cl)C(Cl)=C(Cl)[C@]2(Cl)C1(Cl)Cl (stereo partly drawn) [test1029]
[2]
  Exp. ΔGsolv: -4.2 kcal/mol

## FC(F)(F)c1cccc(C(F)(F)F)c1 [test0004]
[1]
  Exp. ΔGsolv: 1.07 kcal/mol

## CCCCCC(=O)O [Compound 0090hex]
[2]
  Exp. ΔGsolv: -6.21 kcal/mol

## CCNc1nc(NC(C)C)nc(SC)n1 [test1009]
[1]
  Exp. ΔGsolv: -7.7 kcal/mol

## O=C(O)Cc1ccccc1Nc1c(Cl)cccc1Cl [test3020]
[2]
  Exp. ΔGsolv: -6.3 kcal/mol

## CC(N)=O [Compound 0233ethb]
[2]
  Exp. ΔGsolv: -9.71 kcal/mol

## CNc1ccccc1 [Compound 0122Nme]
[1]
  Exp. ΔGsolv: -4.68 kcal/mol

## CCc1cccc(CC)c1N(COC)C(=O)CCl [test1007]
[2]
  Exp. ΔGsolv: -8.2 kcal/mol

## N#Cc1cc(Br)c(O)c(Br)c1 [Compound 0425dbr]
[2]
  Exp. ΔGsolv: -9 kcal/mol

## COP(=O)(OC)C(O)C(Cl)(Cl)Cl (stereo not drawn) [test1055]
[2]
  Exp. ΔGsolv: -12.7 kcal/mol

## CCOP(=S)(OCC)SCSc1ccc(Cl)cc1 [test1017]
[1]
  Exp. ΔGsolv: -6.5 kcal/mol

## FC(F)Cl [Compound 0199chl]
[1]
  Exp. ΔGsolv: -0.5 kcal/mol

## Cc1cccc(C)n1 [Compound 0125dim]
[1]
  Exp. ΔGsolv: -4.6 kcal/mol

## CN1CCN(C)CC1 [Compound 0114NNd]
[2]
  Exp. ΔGsolv: -7.58 kcal/mol

## CC(C)=O [Compound 0075pro]
[1]
  Exp. ΔGsolv: -3.85 kcal/mol

## CCCC=O [Compound 0072but]
[2]
  Exp. ΔGsolv: -3.18 kcal/mol

## CCOc1ccc(NC(C)=O)cc1 [test3005]
[2]
  Exp. ΔGsolv: -10.91 kcal/mol

## CNC(=O)ON=C(C)SC [test1037]
[2]
  Exp. ΔGsolv: -10.7 kcal/mol

## COc1ccc(C(=O)O)cc1 [test3014]
[2]
  Exp. ΔGsolv: -9.15 kcal/mol

## CC(F)F [Compound 0154dif]
[1]
  Exp. ΔGsolv: -0.11 kcal/mol

## Cc1ccccc1[N+](=O)[O-] [Compound 0135met]
[1]
  Exp. ΔGsolv: -3.59 kcal/mol

## O=Cc1ccccc1 [Compound 0074ben]
[2]
  Exp. ΔGsolv: -4.02 kcal/mol

## C=CCCCC [Compound 0029hex]
[1]
  Exp. ΔGsolv: 1.68 kcal/mol

## C#CCCCC [Compound 0034hex]
[1]
  Exp. ΔGsolv: 0.29 kcal/mol

## O=C(O)c1ccccc1Nc1cccc(C(F)(F)F)c1 [test3021]
[2]
  Exp. ΔGsolv: -5.68 kcal/mol

## C=CCBr [Compound 0417brp]
[1]
  Exp. ΔGsolv: -0.86 kcal/mol

## Cc1ccnc(C)c1 [Compound 0123dim]
[1]
  Exp. ΔGsolv: -4.86 kcal/mol

## COc1c(Cl)ccc(Cl)c1C(=O)O [test1025]
[2]
  Exp. ΔGsolv: -9.9 kcal/mol

## OC1CCCC1 [Compound 0051cyc]
[2]
  Exp. ΔGsolv: -5.49 kcal/mol

## CC(C)CO[N+](=O)[O-] [test1005]
[1]
  Exp. ΔGsolv: -1.9 kcal/mol

## O=C(O)CCl [i119, chloroaceticacid, reference compound]
[3]
  Exp. ΔGsolv: -69.70 kcal/mol

## CCCCN(CC)C(=O)SCCC [test1044]
[2]
  Exp. ΔGsolv: -3.6 kcal/mol

## O=C1CCCC1 [Compound 0077cyc]
[1]
  Exp. ΔGsolv: -4.68 kcal/mol

## CC(Cl)(Cl)Cl [Compound 0165tri]
[1]
  Exp. ΔGsolv: -0.25 kcal/mol

## CCCCC(C)=O [Compound 0080hex]
[1]
  Exp. ΔGsolv: -3.29 kcal/mol

## FCCl [Compound 0198chl]
[1]
  Exp. ΔGsolv: -0.77 kcal/mol

## ClCCBr [Compound 0202bro]
[1]
  Exp. ΔGsolv: -1.95 kcal/mol

## CCCCC(=O)O [Compound 0089pen]
[2]
  Exp. ΔGsolv: -6.16 kcal/mol

## CCC(C)c1cc([N+](=O)[O-])cc([N+](=O)[O-])c1O (stereo not drawn) [test1028]
[1]
  Exp. ΔGsolv: -6.2 kcal/mol

## CCCC#N [Compound 0128butb]
[1]
  Exp. ΔGsolv: -3.64 kcal/mol

## CCC(C)Cl (stereo not drawn) [Compound 0409clb]
[1]
  Exp. ΔGsolv: 0.07 kcal/mol

## COc1ccc(C(=O)N(C)C)cc1 [test0005]
[2]
  Exp. ΔGsolv: -11.01 kcal/mol

## COCOC [test0012]
[2]
  Exp. ΔGsolv: -2.93 kcal/mol

## CCCCl [Compound 0167chla]
[1]
  Exp. ΔGsolv: -0.27 kcal/mol

## Clc1ccccc1-c1cccc(Cl)c1Cl [Compound 0416dcl]
[1]
  Exp. ΔGsolv: -1.99 kcal/mol

## C1CNC1 [Compound 0105aze]
[2]
  Exp. ΔGsolv: -5.56 kcal/mol

## Cc1ccccc1 [Compound 0036tol]
[1]
  Exp. ΔGsolv: -0.89 kcal/mol

## Cl[C@H]1[C@H](Cl)[C@@H](Cl)[C@@H](Cl)[C@H](Cl)[C@H]1Cl [test1035]
[1]
  Exp. ΔGsolv: -5.4 kcal/mol

## Cc1ccccn1 [Compound 0119met]
[1]
  Exp. ΔGsolv: -4.63 kcal/mol

## ClC(Cl)(Cl)Br [Compound 0423brt]
[1]
  Exp. ΔGsolv: -0.93 kcal/mol

## Clc1cccc(-c2ccccc2)c1Cl [Compound 0415dcl]
[1]
  Exp. ΔGsolv: -2.45 kcal/mol

## COCCO [Compound 0146met]
[2]
  Exp. ΔGsolv: -6.77 kcal/mol

## COCCN [Compound 0147met]
[2]
  Exp. ΔGsolv: -6.55 kcal/mol

## CCCCC=O [Compound 0073pen]
[2]
  Exp. ΔGsolv: -3.03 kcal/mol

## C1CC1 [Compound 0016cyc]
[1]
  Exp. ΔGsolv: 0.75 kcal/mol

## COC(C)C [Compound 0065met]
[2]
  Exp. ΔGsolv: -2.01 kcal/mol

## CCCCCCCC [Compound 0008noc]
[1]
  Exp. ΔGsolv: 2.89 kcal/mol

## COC(=O)c1ccc(O)cc1 [test2020]
[2]
  Exp. ΔGsolv: -9.51 kcal/mol

## CCOOCC [ethylperoxide, reference compound]
Neutral molecule
  ΔGsol experimental value: -5.32 kcal/mol

## FC(F)(F)C(F)(F)C(F)(F)F [Compound 0406oct]
[1]
  Exp. ΔGsolv: 4.28 kcal/mol

## COC [Compound 0060dim]
[2]
  Exp. ΔGsolv: -1.92 kcal/mol

## BrCBr [Compound 0178dib]
[1]
  Exp. ΔGsolv: -2.11 kcal/mol

## CCCCOC(=O)c1ccc(O)cc1 [test2003]
[2]
  Exp. ΔGsolv: -8.72 kcal/mol

## C=CCl [Compound 0169chl]
[1]
  Exp. ΔGsolv: -0.59 kcal/mol

## CCBr [Compound 0180bro]
[1]
  Exp. ΔGsolv: -0.7 kcal/mol

## CC(=O)Nc1cccc(O)c1 [test3002]
[2]
  Exp. ΔGsolv: -13.93 kcal/mol

## Nc1ccc([N+](=O)[O-])cc1 [test2022]
[1]
  Exp. ΔGsolv: -9.45 kcal/mol

## COC(=O)c1ccccc1 [Compound 0240met]
[2]
  Exp. ΔGsolv: -3.91 kcal/mol

## CCCBr [Compound 0182bro]
[1]
  Exp. ΔGsolv: -0.56 kcal/mol

## C=CCN [i008, allylamine, reference compound]
[3]
  Exp. ΔGsolv: -72.00 kcal/mol

## Cc1c(Cl)cccc1Nc1ccccc1C(=O)O [test3019]
[2]
  Exp. ΔGsolv: -6.71 kcal/mol

## CC(C)OC(C)C [Compound 0242dii]
[2]
  Exp. ΔGsolv: -0.53 kcal/mol

## CCCCCBr [Compound 0185bro]
[1]
  Exp. ΔGsolv: -0.08 kcal/mol

## COc1ccc2cc([C@H](C)C(=O)O)ccc2c1 [test2021]
[2]
  Exp. ΔGsolv: -10.21 kcal/mol

## CCCC [Compound 0004nbu]
[1]
  Exp. ΔGsolv: 2.08 kcal/mol

## CCCCCC(=O)O [i061, hexanoicacid, reference compound]
[3]
  Exp. ΔGsolv: -74.60 kcal/mol

## COc1ccc(N)cc1 [i093, 4-methoxyaniline, reference compound]
[3]
  Exp. ΔGsolv: -71.20 kcal/mol

## Cn1cnc2c(N)ncnc21 [Compound 0402adn]
[1]
  Exp. ΔGsolv: -13.6 kcal/mol

## O=C(O)CCC(=O)c1ccc(-c2ccccc2)cc1 [test3003]
[2]
  Exp. ΔGsolv: -12.75 kcal/mol

## Nc1c(Cl)c(Cl)nc(C(=O)O)c1Cl [Compound 0428ami]
[2]
  Exp. ΔGsolv: -11.96 kcal/mol

## O=c1[nH]c(=O)[nH]c(=O)[nH]1 [test2007]
[2]
  Exp. ΔGsolv: -18.06 kcal/mol

## Nc1ccc(N)c2c1C(=O)c1c(N)ccc(N)c1C2=O [test1060]
[2]
  Exp. ΔGsolv: -8.9 kcal/mol

## CCNc1nc(Cl)nc(NCC)n1 [test1050]
[2]
  Exp. ΔGsolv: -10.2 kcal/mol

## O=C(O)c1cc(-c2ccc(F)cc2F)ccc1O [test2010]
[2]
  Exp. ΔGsolv: -9.4 kcal/mol

## CCOP(=S)(OCC)Oc1ccc([N+](=O)[O-])cc1 [test1043]
[2]
  Exp. ΔGsolv: -6.7 kcal/mol

## Cc1cccnc1 [Compound 0120met]
[1]
  Exp. ΔGsolv: -4.77 kcal/mol

## FC(Br)C(F)(F)F (stereo not drawn) [Compound 0203bro]
[1]
  Exp. ΔGsolv: 0.52 kcal/mol

## CCc1ccccc1 [Compound 0037eth]
[1]
  Exp. ΔGsolv: -0.8 kcal/mol

## O=[N+]([O-])c1c(Cl)c(Cl)c(Cl)c(Cl)c1Cl [test2024]
[2]
  Exp. ΔGsolv: -5.22 kcal/mol

## CCC(=O)CC [Compound 0079pen]
[1]
  Exp. ΔGsolv: -3.41 kcal/mol

## CC(C)CC(C)C [Compound 0013dim]
[1]
  Exp. ΔGsolv: 2.88 kcal/mol

## CCCCCCCO [Compound 0058hep]
[2]
  Exp. ΔGsolv: -4.24 kcal/mol

## CCCCCCCC(=O)OC [Compound 0238met]
[2]
  Exp. ΔGsolv: -2.04 kcal/mol

## C=CC=C [Compound 0023str]
[1]
  Exp. ΔGsolv: 0.61 kcal/mol

## C1CCOC1 [Compound 0061tet]
[2]
  Exp. ΔGsolv: -3.47 kcal/mol

## C=CC(=O)O [i062, acrylicacid, reference compound]
[3]
  Exp. ΔGsolv: -74.00 kcal/mol
